From patent EP0379367B1, “Method for the prevention of intrinsically aged skin with retinoids” (ORTHO PHARMACEUTICAL CORPORATION, priority 1989, dated 1990)
Entries after “also recorded” stand apart in the source; their conditions may differ.

Tests used:
[1] = system: Female Albino hairless mice (Skh-hairless-1); test: Lifetime topical application of all-trans-retinoic acid to albino hairless mice (toxicity, clinical and histochemical skin observations); details: for clinical observations: condition of the skin: lifetime application, mice 91-106 weeks of age at photograph (Figure 1), versus vehicle and untreated controls
Protocol: (§1) Lifetime Application of all-trans-Retinoic Acid to Albino Hairless Mice.
(§2) Female Albino hairless mice (Skh-hairless-1), age 8-11 weeks, were treated topically, three times a week, for the remainder of their life span as follows:
(§3) The mice were examined monthly for skin changes and possible weight loss that might indicate a toxic effect.
(§4) Toward the end of the study, mice were photographed to show the condition of the skin. A few mice were sacrificed at about 70, 80 and 90 weeks, with dorsal skin taken for histochemical evaluation. The remainder were allowed to live out their life span which ranged from 91-106 weeks and were biopsied when moribound, if possible. The histochemical stains were: H&E for general histology, Luna's for elastic fibers, Van Gieson's for collagen and Mowry's for proteoglycans.

[2] = system: Female Albino hairless mice (Skh-hairless-1); details: mouse, in vivo
Protocol: as §1, §2, §3, §4

In the case of `CC1=C(/C=C/C(C)=C/C=C/C(C)=C/C(=O)O)C(C)(C)CCC1` [all-trans-retinoic acid], the mortality ([1]; 0.025% (100 µl) topically, three times a week, remainder of life span, compared with cream vehicle and untreated groups) is reported as “no difference in mortality”, the “clinical observations: condition of the skin” value [1] is reported as “thinner, pinker, more uniform skin than the controls” and the “clinical observations: condition of the skin” value ([1]; listed as All-trans-retinoic acid) is reported as “thinner, pinker, more uniform skin than controls or untreated mice”. The “collagen in the repair zones (Van Gieson's stain)” value ([1]; lifetime treatment) was “stained mainly as normal, mature collagen”, the “dermal inflammation (H&E)” value ([1]; lifetime treatment) was “mild inflammatory infiltrate in the mid-dermis” and the “epidermal cell morphology (H&E)” value ([1]; lifetime treatment) was “plump, cytologically normal and have abundant cytoplasm; also recorded: plump, cytologically normal and had an abundant cytoplasm”. The “granular layer of epidermis (H&E)” value ([1]; lifetime treatment) was “about 4 cell layers”, the “elastic fibers (Luna's stain)” value ([1]; lifetime treatment (Figure 4)) was “increased amount of new elastic fibers” and the “glycosamino-/proteoglycan deposits at the dermal-epidermal junction (Mowry's stain)” value ([1]; lifetime treatment, compared with the other groups) was “Fewer deposits”. For the same compound, the “epidermis (H&E), thickness” value ([1]; lifetime treatment, hyperplastic, controls had the usual 2-4 compressed-looking cells) was “about 8 cell layers”, the “new collagen (H&E; Luna's stain)” value ([1]; lifetime treatment, no repair areas in controls) was “Areas of new collagen were apparent” and the “granular layer of epidermis (H&E, Figure 4)” value ([1]; lifetime treatment, sample from a mouse 95 weeks of age) was “approximately 4 cells”. The “dermal glycosaminoglycans or proteoglycans (Mowry's stain)” value ([1]; lifetime treatment, stated for all groups) was “little or no increase”, the “blood vessels (H&E)” value ([1]; lifetime treatment, unlike in the controls) was “abundance of new blood vessels; also recorded: readily seen” and the toxic effects ([1]; treatment over a lifetime) was “no detectable toxic effects”. For the same compound, the “adverse or unusual effects at biopsy and necropsy” value [2] was “no indication that the mice suffered any adverse or unusual effects” and the weights of mice [2] was “no difference in the weights”.
